# In the NIST ThermoML archive (doi:10.1007/s10765-005-8096-3):
# ± gives the expanded uncertainty stated by the source.
# Experiment: refractive index (Na D-line) (dimensionless)
# Settings: 298.15 K; 101.33 kPa; Liquid; Standard Abbe refractometry
row,Compound,refractive index
1,"CC(C)(C)c1ccccc1 [(1,1-dimethylethyl)benzene]",1.49003 ± 0.00075
2,CC(C)Cc1ccccc1 [(2-methylpropyl)benzene],1.48397 ± 0.00075
3,CCCCOC(C)=O [butyl ethanoate],1.39176 ± 0.00075
4,"Cc1ccc(C)cc1 [1,4-dimethylbenzene]",1.49298 ± 0.00075
5,"Cc1cc(C)cc(C)c1 [1,3,5-trimethylbenzene]",1.49682 ± 0.00075
6,Cc1ccccc1 [toluene],1.49399 ± 0.00075
7,CCc1ccccc1 [ethylbenzene],1.49316 ± 0.00075
8,CCCCc1ccccc1 [butylbenzene],1.48735 ± 0.00075
9,CC(C)c1ccccc1 [isopropylbenzene],1.48869 ± 0.00075
